The results in this text go back to patent US9169496B2, “Method for the enzymatic production of butadiene” (Scientist of Fortune, S.A., priority 2011, dated 2015).

This assay concerns 4-methyl-5-(2-hydroxyethyl)thiazole kinase from E. coli. In words: Kinetic parameters of crotyl alcohol phosphorylation (spectrophotometric assay of Example 2). Type of assay: biochemical. The conditions noted are these: crotyl alcohol phosphorylation by purified E. coli kinase. The procedure: The release of ADP that is associated with crotyl alcohol phosphorylation was quantified using the pyruvate kinase/lactate dehydrogenase coupled assay (FIG. 5). The purified 4-methyl-5-(2-hydroxyethyl)thiazole kinases from Escherichia coli (SEQ ID NO:2), Bacillus subtilis (SEQ ID NO:1), Rhizobium leguminosarum (SEQ ID NO:3) were evaluated for their ability to phosphorylate crotyl alcohol releasing ADP. The studied enzymatic reaction was carried out under the following conditions at 37° C.: • 50 mM Tris-HCl pH 7.5 • 10 mM MgCl2 • 100 mM KCl • 5 mM ATP • 0.4 mM NADH • 1 mM Phosphoenolpyruvate • 3 U/ml Lactate dehydrogenase • 1.5 U/ml Pyruvate kinase • 50 mM crotyl alcohol, mixture cis and trans • The pH was adjusted to 7.5
Each assay was started by addition of a particular enzyme at a concentration 0.05 mg/ml and the disappearance of NADH was monitored by following the absorbance at 340 nm.
Kinetic parameters of crotyl alcohol phosphorylation were determined using the spectrophotometric assay described in Example 2.

The structures appear in SMILES notation.

As usually defined, the Km is the substrate concentration at which the rate is half of its maximum. `C/C=C\CO` [Cis crotyl alcohol]: the Km was found to be 13.6 mM.
For the molecule `C/C=C/CO` [Trans crotyl alcohol], the Michaelis-Menten constant (Km) was determined as 30 mM.
